From patent US12064464B2, “Plantaricin NC8 alpha beta markedly enhances the effects of antibiotics” (priority 2018, dated 2024)
Entries after “also recorded” stand apart in the source; their conditions may differ. Like-named read-outs stand apart in the source and are kept apart here.

How the values were obtained:
Pseudomonas aeruginosa = assay: Broth microdilution MIC/MBC; format: cell-based; conditions: P. aeruginosa, antibiotic alone, unit not given
Source text: (§1) Staphylococcus aureus CCUG 35601 (MRSA, Culture Collection, University of Gothenburg) and Staphylococcus aureus ATCC 29213 (MSSA, ATCC, Manassas, VA). Staphylococcus epidermidis ATCC 12228 (ATCC, Manassas, VA), RP62A, N15 and 10 clinical isolates of Staphylococcus epidermidis that have previously been characterized. Isolated Escherichia coli, Enterococcus faecium (including VRE), Pseudomonas aeruginosa, Klebsiella pneumoniae, Enterobacter spp and Acinetobacter baumannii were obtained from Orebro University hospital. Isolated Streptococcus mutans, Streptococcus constellatus and Streptococcus anginosus were obtained from Malmo University. The bacteria were grown on Luria-Bertani (LB) agar plates, supplemented with 5% defibrinated horse blood, and incubated at 37° C. overnight. Single colonies were inoculated into 5 ml of LB broth and incubated on a shaker (300 rpm) at 37° C. overnight. The bacterial concentration was determined by viable count and adjusted to correlate with approximately 10^9 CFU/ml.
(§2) The broth microdilution method was used to determine minimal inhibitory concentration (MIC) and minimal bactericidal concentration (MBC). Two-fold serial dilutions of the peptides were used and the final concentrations ranged from 0.097-50 μM. […] The effect of bacteriocin-antibiotic combinations was accomplished by using the same concentration series of antibiotics with a constant concentration of PLNC8 αβ (3.1 μM) in all the wells. […] All experiments were repeated at least three times.

[1] = test system: S. epidermidis ATCC 12228; assay: Broth microdilution MIC/MBC; format: cell-based, Staphylococcus epidermidis; conditions: for enhancement of the inhibitory effects of β1-20 and β7-20: co-incubation with α-peptide; for inhibitory and bactericidal effects on S. epidermidis: α-peptide in combination with the β-peptide; for growth inhibition of S. epidermidis: single full-length or truncated peptide
Source text: as §1, §2

[2] = Fluorescence leakage assay (CF release from liposomes); conditions: for disruption of liposome membranes (CF release): peptide alone; for lysis of liposomes: after 2 min, both the L-form and D-form
Protocol: Liposomes were prepared by dry film formation, hydration and finally extrusion through a polycarbonate membrane to form monodisperse large unilamellar vesicles. […] A dry lipid film was formed by evaporation of the chloroform by nitrogen flow and overnight lyophilization. The film was hydrated with either 10 mM phosphate buffer (PB) pH 7 or 10 mM phosphate buffer saline (PBS) pH 7, and the solution was vortexed for 1 min and put on a shaker for 1 h before extruded 21 times through a 100 nm pore-sized polycarbonate membrane. For fluorescence leakage assay the lipid film was hydrated with buffer (PBS) containing self-quenching concentration (50 mM) of 5(6)-carboxyfluorescein (CF) (Sigma Aldrich) and liposomes were prepared as described above. Removal of unencapsulated CF was done by gel filtration using a PD-25 column (GE Healthcare, Uppsala, Sweden) and liposomes with encapsulated CF were eluted with PBS. Leakage of the liposome encapsulated fluorophore CF due to additions of the bacteriocins was recorded using a fluorescence plate reader (Infinite 200, Tecan, Austria) where λex=485 nm and λem=520 nm. CF was encapsulated at self-quenching concentration, and CF release results in an increased fluorescence signal. […] In order to estimate the maximum release from each sample a final addition of 0.5% Triton X-100 was made at the end of all measurements and the total amount of CF (100% release) was estimated after 15 min incubation. The CF release is presented as percentage release for each time interval (measurements taken every minute). The percentage CF release is calculated as 100×(F−F0)/(FT−F0) where F0 is the initial fluorescence intensity of CF before peptide addition, F is the fluorescence intensity of CF at time point t and FT is the maximum fluorescence after the addition of Triton X-100.

[3] = test system: S. epidermidis RP62A biofilms; assay: Bacterial biofilm disruption; format: cell-based, Staphylococcus epidermidis; conditions: 1 h
Protocol: S. epidermidis RP62A was inoculated into 5 ml of LB broth and incubated on a shaker at 37° C. overnight. The bacterial culture was diluted 1:100 into fresh media and 100 μl of bacterial suspension per well was added in a 96-well microtiter plate and incubated statically at 37° C. for 20 h. The wells were washed three times by submerging the plate into a container with distilled water to remove unattached cells. Fresh LB media was added to each well (100 μl) followed by addition of the peptides in different concentrations. The plate was incubated statically for 1 h. Detached material in the wells were transferred to a new microtiter plate for absorbance measurements at 620 nm. The remaining attached biofilms were stained with 0.1% crystal violet for 15 min before the plate was washed four times in distilled water as mentioned above and allowed to dry at room temperature for 2 h. The crystal violet was solubilized in 30% acetic acid for 15 min and the absorbance quantified at 550 nm. Each experiment, with three replicates, was repeated three times.

[4] = test system: S. epidermidis 126 (hGISE strain); assay: Broth microdilution MIC/MBC; format: cell-based, Staphylococcus epidermidis
Source text: as §1, §2

S. epidermidis 154 = assay: Broth microdilution MIC/MBC; format: cell-based, Staphylococcus epidermidis
Source text: as §1, §2

[5] = test system: S. epidermidis 157 (hGISE strain); assay: Broth microdilution MIC/MBC; format: cell-based, Staphylococcus epidermidis
Source text: as §1, §2

[6] = test system: S. aureus CCUG 35601 (MRSA); assay: Broth microdilution MIC/MBC; format: cell-based, Staphylococcus aureus
Source text: as §1, §2

S. epidermidis = assay: Broth microdilution MIC/MBC, strain not named; format: cell-based, Staphylococcus epidermidis; conditions: for MBC / MIC: Table 8, antibiotic alone
Source text: as §1, §2

Escherichia coli = assay: Broth microdilution MIC/MBC; format: cell-based; conditions: antibiotic alone, unit not given; for MBC: in µg/mL
Source text: as §1, §2

Enterococcus faecium = assay: Broth microdilution MIC/MBC; format: cell-based; conditions: antibiotic alone, unit inferred; for MIC: unit assumed
Source text: as §1, §2

[7] = Staphylococcus epidermidis, ATCC12228
[8] = Staphylococcus epidermidis, 154
[9] = Non-ESBL E. coli, first isolate
[10] = Non-ESBL E. coli, second isolate
[11] = Vancomycin resistant E. faecium (VRE)
[12] = ESBL-producing E. coli, first isolate
[13] = ESBL-producing E. coli, second isolate
[14] = Table 3, MRSA, antibiotic alone

Work on `C[C@@H](O)[C@H]1C(=O)N2C(C(=O)O)=C(S[C@@H]3CN[C@H](C(=O)N(C)C)C3)[C@H](C)[C@H]12` [Meropenem, reference compound] yielded an MBC (Pseudomonas aeruginosa; first isolate) of 50, an MIC (Pseudomonas aeruginosa; first isolate) of 25 and an MBC (Pseudomonas aeruginosa; second isolate) of 25. It also gave an MIC (Pseudomonas aeruginosa; second isolate) of 25.
In the case of “DLTTKLWSSWGYYLGKKARWNL (Lactobacillus plantarum NC8) [α1-22]”, the “enhancement of the inhibitory effects of β1-20 and β7-20” value [1] was “not further enhanced; also recorded: did not further enhance”, the “inhibitory and bactericidal effects on S. epidermidis” value [1] was “exerted inhibitory and bactericidal effects; also recorded: inhibited” and the “disruption of liposome membranes (CF release)” value (from here on “disruption … (CF release)”) [2] was “disrupted the membrane of the liposomes”.
For “DLTTKLWSSWGYYLG (Lactobacillus plantarum NC8) [α1-15]”, the “enhancement of the inhibitory effects of β1-20 and β7-20” value [1] was “not further enhanced; also recorded: did not further enhance”.
For `C[C@H]1COc2c(N3CCN(C)CC3)c(F)cc3c(=O)c(C(=O)O)cn1c23` [Levofloxacin, reference compound], the MBC (Pseudomonas aeruginosa; first isolate) was 2, the MIC (Pseudomonas aeruginosa; first isolate) was 1 and the MBC (Pseudomonas aeruginosa; second isolate) was 4. The MIC (Pseudomonas aeruginosa; second isolate) was 4.
With “H-DLTTKLWSSWGYYLGKKARWNLKHPYVQF-OH [PLNC8 α]” the “enhancement of the inhibitory effects of β1-20 and β7-20” value [1] was “not further enhanced”, the “inhibitory and bactericidal effects on S. epidermidis” value [1] was “inhibited” and the disruption of biofilms [3] was “disruptive effects on the biofilms”. The lysis of liposomes [2] was “not” and the “disruption … (CF release)” value [2] was “disrupted the membrane of the liposomes”.
With `CN[C@H](CC(C)C)C(=O)N[C@H]1C(=O)N[C@@H](CC(N)=O)C(=O)N[C@H]2C(=O)N[C@H]3C(=O)N[C@H](C(=O)N[C@H](C(=O)O)c4cc(O)cc(O)c4-c4cc3ccc4O)[C@H](O)c3ccc(c(Cl)c3)Oc3cc2cc(c3O[C@@H]2O[C@H](CO)[C@@H](O)[C@H](O)[C@H]2O[C@H]2C[C@](C)(N)[C@H](O)[C@H](C)O2)Oc2ccc(cc2Cl)[C@H]1O` [Vancomycin] the MBC ([4]; Staphylococcus epidermidis) was 3.1 µg/mL, the MIC ([4]; Staphylococcus epidermidis) was 3.1 µg/mL and the MBC [1, 7] was 3.1 µg/mL. For the same molecule, the MIC [1, 7] was 1.5 µg/mL, the MBC (S. epidermidis 154; [8]) was 3.1 µg/mL and the MIC (S. epidermidis 154; [8]) was 1.5 µg/mL. It also gave an MBC ([5]; Staphylococcus epidermidis) of 6.25 µg/mL, an MIC ([5]; Staphylococcus epidermidis) of 6.25 µg/mL and an MBC ([6]; Staphylococcus aureus) of 3.1 µg/mL. It also gave an MIC ([6]; Staphylococcus aureus) of 1.5 µg/mL.
`CO[C@H]1/C=C/O[C@@]2(C)Oc3c(C)c(O)c4c(O)c(c(/C=N/N5CCN(C)CC5)c(O)c4c3C2=O)NC(=O)/C(C)=C\C=C\[C@H](C)[C@H](O)[C@@H](C)[C@@H](O)[C@@H](C)[C@H](OC(C)=O)[C@@H]1C` [Rifampicin] gave an MBC ([1]; Staphylococcus epidermidis, ATCC12228, Table 2, antibiotic alone, read-out: MBC) of 0.5 µg/mL, an MIC ([1]; Staphylococcus epidermidis, ATCC12228, Table 2, antibiotic alone, read-out: MIC) of 0.25 µg/mL and an MBC (S. epidermidis; Staphylococcus epidermidis, read-out: MBC) of 0.5 µg/mL. For the same molecule, the MIC (S. epidermidis; Staphylococcus epidermidis, read-out: MIC) was 0.25 µg/mL, the “effective amount of rifampicin” value (S. epidermidis; in the presence of L-PLNC8 αβ or D-PLNC8 αβ) was 0.0019 µg/mL and the MIC (Escherichia coli; [9]) was 6.25. The MIC (Escherichia coli; [10]) was 6.25, the MBC (Escherichia coli; [10]) was 25 and the MBC (Enterococcus faecium; E. faecium, first isolate) was over 50 µg/mL. The MIC (Enterococcus faecium; E. faecium, first isolate) was over 50 µg/mL, the MBC (Enterococcus faecium; E. faecium, second isolate) was over 50 µg/mL and the MIC (Enterococcus faecium; E. faecium, second isolate) was 25 µg/mL. For the same molecule, the MBC (Enterococcus faecium; [11]) was 3.1 µg/mL and the MIC (Enterococcus faecium; [11]) was under 0.097 µg/mL.
In the case of Gentamicin, the MBC ([1]; Table 2, antibiotic alone) was 0.31 µg/mL, the MIC ([1]; Table 2, antibiotic alone) was 0.31 µg/mL and the MIC (Escherichia coli; [12]) was over 50. It also gave an MBC (Escherichia coli; [12]) of over 50, an MIC (Escherichia coli; [13]) of 3.125 and an MBC (Escherichia coli; [13]) of 6.25. The MIC (Escherichia coli; [9]) was 1.56, the MBC (Escherichia coli; [9]) was 1.56 and the MIC (Escherichia coli; [10]) was 1.56. It also gave an MBC (Escherichia coli; [10]) of 3.125, an MBC (Enterococcus faecium; E. faecium, first isolate) of over 50 µg/mL and an MIC (Enterococcus faecium; E. faecium, first isolate) of 50 µg/mL. For the same molecule, the MBC (Enterococcus faecium; E. faecium, second isolate) was 50 µg/mL, the MIC (Enterococcus faecium; E. faecium, second isolate) was 50 µg/mL and the MBC (Enterococcus faecium; [11]) was over 50 µg/mL. It also gave an MIC (Enterococcus faecium; [11]) of over 50 µg/mL.
Work on Teicoplanin yielded an MBC ([4]; Table 3, antibiotic alone) of 6.25 µg/mL, an MIC ([4]; Table 3, antibiotic alone) of 3.1 µg/mL and an MBC ([1]; Table 2, antibiotic alone) of 1.5 µg/mL. The MIC ([1]; Table 2, antibiotic alone) was 1.5 µg/mL, the MBC (S. epidermidis 154; Table 3, antibiotic alone) was 1.5 µg/mL and the MIC (S. epidermidis 154; Table 3, antibiotic alone) was 1.5 µg/mL. The MBC ([5]; Table 3, antibiotic alone) was 25 µg/mL, the MIC ([5]; Table 3, antibiotic alone) was 12.5 µg/mL and the MBC (S. epidermidis) was 1.5 µg/mL. For the same molecule, the MIC (S. epidermidis) was 1.5 µg/mL, the MBC [6, 14] was 3.1 µg/mL and the MIC [6, 14] was 0.78 µg/mL. For the same molecule, the MIC (Escherichia coli; [12]) was over 50, the MBC (Escherichia coli; [12]) was over 50 and the MIC (Escherichia coli; [13]) was over 50. For the same molecule, the MBC (Escherichia coli; [13]) was over 50, the MIC (Escherichia coli; [9]) was over 50 and the MBC (Escherichia coli; [9]) was over 50. It also gave an MIC (Escherichia coli; [10]) of over 50, an MBC (Escherichia coli; [10]) of over 50 and an MBC (Enterococcus faecium; E. faecium, first isolate) of over 50 µg/mL. The MIC (Enterococcus faecium; E. faecium, first isolate) was over 50 µg/mL, the MBC (Enterococcus faecium; E. faecium, second isolate) was 25 µg/mL and the MIC (Enterococcus faecium; E. faecium, second isolate) was 0.39 µg/mL. The MBC (Enterococcus faecium; [11]) was 50 µg/mL and the MIC (Enterococcus faecium; [11]) was 0.39 µg/mL.
With “H-SVPTSVYTLGIKILWSAYKHRKTIEKSFNKGFYH-OH [PLNC8 β]” the “growth inhibition of S. epidermidis” value [1] was “inhibited”, the disruption of biofilms [3] was “disruptive effects on the biofilms” and the lysis of liposomes [2] was “complete lysis of liposomes after 2 min”. The “disruption … (CF release)” value [2] was “Disruption of the liposome membranes”.
For “SVPTSVYTLGIKILWSAYKH (Lactobacillus plantarum NC8) [β1-20]”, the “growth inhibition of S. epidermidis” value [1] was “most efficiently inhibited; also recorded: most effective in inhibiting S. epidermidis; also recorded: inhibited” and the “disruption … (CF release)” value [2] was “Disruption of the liposome membranes”.
With “YTLGIKILWSAYKHRKTIEKSFNKGFYH (Lactobacillus plantarum NC8) [β7-34]” the “growth inhibition of S. epidermidis” value [1] was “inhibited” and the “disruption … (CF release)” value [2] was “Disruption of the liposome membranes”.
For “YTLGIKILWSAYKH (Lactobacillus plantarum NC8) [β7-20]”, the “growth inhibition of S. epidermidis” value [1] was “most efficiently inhibited; also recorded: inhibited” and the “disruption … (CF release)” value [2] was “Disruption of the liposome membranes”.
